{"source": "patent US10329289B2", "about": "“6,7-dihydro-5H-pyrrolo[3,4-B]pyridin-5-one allosteric modulators of the M4 muscarinic acetylcholine receptor” (Merck Sharp & Dohme Corp., priority 2015, dated 2019)"}
{"biological_target": "T1, human M4 muscarinic acetylcholine receptor (Homo sapiens, UniProt P08173)", "T1 construct": "expressed in transfected cells; host or cells: CHO-K1", "T1 sequence (P08173 1-479)": "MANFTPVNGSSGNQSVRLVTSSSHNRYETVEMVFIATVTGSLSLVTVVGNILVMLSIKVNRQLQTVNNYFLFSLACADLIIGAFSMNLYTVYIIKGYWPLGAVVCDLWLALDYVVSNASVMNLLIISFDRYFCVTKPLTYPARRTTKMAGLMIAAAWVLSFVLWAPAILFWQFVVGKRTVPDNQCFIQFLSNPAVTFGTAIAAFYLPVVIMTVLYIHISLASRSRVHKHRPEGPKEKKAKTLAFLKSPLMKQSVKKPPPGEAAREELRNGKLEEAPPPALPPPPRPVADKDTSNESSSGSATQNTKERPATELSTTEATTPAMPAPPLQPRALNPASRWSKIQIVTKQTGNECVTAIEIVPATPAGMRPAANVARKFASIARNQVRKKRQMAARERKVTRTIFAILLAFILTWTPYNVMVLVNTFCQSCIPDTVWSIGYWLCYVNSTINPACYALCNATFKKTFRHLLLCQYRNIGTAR", "experiment": "human FLIPR-based M4 PAM assay (Ca2+ mobilization, CHO-K1 cells with human M4 receptor and Gαqi5)", "format": "cell-based", "conditions": "acetylcholine at 20% of maximum response, read-out: M4 PAM IP", "summary_of_the_method": "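CHO-K1 cells stably expressing human M4 and chimeric Gαqi5 were dye-loaded ~1 h at 37 °C and read for Ca2+ fluorescence. Compound followed by acetylcholine at an EC20 (sometimes an EC70 third addition); inflection point from a 4-parameter logistic fit.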", "units": {"EC50": "nM"}}
{"smiles": "Cc1c(N2CC[C@H](OCC3(C)CC3)[C@@H](F)C2)nc2c(c1C)C(=O)NC2", "note": "[Example 219A, 2-((3S,4S)-3-fluoro-4-((1-methylcyclopropyl)methoxy)piperidin-1-yl)-3,4-dimethyl-6,7-dihydro-5H-pyrrolo[3,4-b]pyridin-5-one]", "EC50": 46}
{"smiles": "COC(=O)CN1Cc2nc(N3CCC(Oc4ccc(OC)nc4)CC3)c(C)cc2C1=O", "note": "[Example 260, methyl 2-(2-(4-((6-methoxypyridin-3-yl)oxy)piperidin-1-yl)-3-methyl-5-oxo-5,7-dihydro-6H-pyrrolo[3,4-b]pyridin-6-yl)acetate]", "EC50": 141}
{"smiles": "C=Cc1c(C)c(N2CCC(Oc3ccc(OC)nc3)CC2)nc2c1C(=O)NC2", "note": "[Example 372, 2-(4-((6-Methoxypyridin-3-yl)oxy)piperidin-1-yl)-3-methyl-4-vinyl-6,7-dihydro-5H-pyrrolo[3,4-b]pyridin-5-one]", "EC50": 634}
{"smiles": "Cc1cc2c(nc1N1CCC(Oc3ccc4c(c3)OCCN4C)CC1)CNC2=O", "note": "[Example 293, 3-methyl-2-(4-((4-methyl-3,4-dihydro-2H-benzo[b][1,4]oxazin-7-yl)oxy)piperidin-1-yl)-6,7-dihydro-5H-pyrrolo[3,4-b]pyridin-5-one]", "EC50": 104}
{"smiles": "COc1ccc(OC2CCN(c3nc4c(cc3CO)C(=O)NC4)CC2)cn1", "note": "[Example 301, 3-(Hydroxymethyl)-2-(4-((6-methoxypyridin-3-yl)oxy)piperidin-1-yl)-6,7-dihydro-5H-pyrrolo[3,4-b]pyridin-5-one]", "EC50": 1140}
{"smiles": "COc1ccc(OC2CCN(c3nc4c(cc3C)C(=O)N(C)C4)CC2)cn1", "note": "[Example 18, 2-(4-((6-methoxypyridin-3-yl)oxy)piperidin-1-yl)-3,6-dimethyl-6,7-dihydro-5H-pyrrolo[3,4-b]pyridin-5-one]", "EC50": 36}
{"smiles": "Cc1cc2c(nc1N1CCC(OC3CCOCC3)CC1)CNC2=O", "note": "[Example 42, 3-methyl-2-(4-((tetrahydro-2H-pyran-4-yl)oxy)piperidin-1-yl)-6,7-dihydro-5H-pyrrolo[3,4-b]pyridin-5-one]", "EC50": 1730}
{"smiles": "Cc1cc2c(nc1N1CCC(Oc3ccc(OC(F)(F)F)nc3)CC1)CNC2=O", "note": "[Example 124, 3-methyl-2-(4-((6-(trifluoromethoxy)pyri-din-3-yl)oxy)piperidin-1-yl)-6,7-dihydro-5H-pyrrolo[3,4-b]pyridin-5-one]", "EC50": 362}
{"smiles": "C=C1NC(=O)c2cc(C)c(N3CCC(Oc4ccc(OC)nc4)CC3)nc21", "note": "[Example 289, 2-(4-((6-Methoxypyridin-3-yl)oxy)piperidin-1-yl)-3-methyl-7-methylene-6,7-dihydro-5H-pyrrolo[3,4-b]pyridin-5-one]", "EC50": 156}
{"smiles": "Cc1cc2c(nc1N1CC[C@@H](Oc3cccnc3)[C@@H](F)C1)CNC2=O", "note": "(single isomer, unassigned) [Example 166, 2-((3S,4R) or (3R,4S)-3-fluoro-4-(pyridin-3-yloxy)piperidin-1-yl)-3-methyl-6,7-dihydro-5H-pyrrolo[3,4-b]pyridin-5-one]", "EC50": 90}
{"smiles": "Cc1cc2c(nc1N1CC[C@@H](Oc3ccc4c(cnn4C)c3)[C@H](F)C1)CN(CCO)C2=O", "note": "[Example 241A, 2-((3R,4R)-3-fluoro-4-((1-methyl-1H-indazol-5-yl)oxy)piperidin-1-yl)-6-(2-hydroxyethyl)-3-methyl-6,7-dihydro-5H-pyrrolo[3,4-b]pyridin-5-one]", "EC50": 93}
{"smiles": "Cc1cc2c(nc1N1CCC(Oc3ccc4cccnc4c3)CC1)CNC2=O", "note": "[Example 92, 3-methyl-2-(4-(quinolin-7-yloxy)piperidin-1-yl)-6,7-dihydro-5H-pyrrolo[3,4-b]pyridin-5-one]", "EC50": 461}
{"smiles": "Cc1cc2c(nc1N1CCC(Oc3ccc(F)cc3)CC1)[C@H](CO)N(C)C2=O", "note": "[Example 280, (R)-2-(4-(4-fluorophenoxy)piperidin-1-yl)-7-(hydroxymethyl)-3,6-dimethyl-6,7-dihydro-5H-pyrrolo[3,4-b]pyridin-5-one]", "EC50": 438}
{"smiles": "Cc1cc2c(nc1N1CCC(Oc3ccc(C#N)nc3)CC1)CNC2=O", "note": "[Example 85, 5-((1-(3-methyl-5-oxo-6,7-dihydro-5H-pyrrolo[3,4-b]pyridin-2-yl)piperidin-4-yl)oxy)picolinonitrile]", "EC50": 2620}
{"smiles": "Cc1cc2c(nc1N1CCC(Oc3cnc4c(c3)NCCO4)CC1)CNC2=O", "note": "[Example 145, 2-(4-((2,3-dihydro-1H-pyrido[2,3-b][1,4]oxazin-7-yl)oxy)piperidin-1-yl)-3-methyl-6,7-dihydro-5H-pyrrolo[3,4-b]pyridin-5-one]", "EC50": 2160}
{"smiles": "Cc1cc2c(nc1N1CC[C@@H](Oc3ccccc3)[C@@H](F)C1)CN(C)C2=O", "note": "[Example 241, 2-((3S,4R)-3-fluoro-4-phenoxypiperidin-1-yl)-3,6-dimethyl-6,7-dihydro-5H-pyrrolo[3,4-b]pyridin-5-one]", "EC50": 22}
{"smiles": "Cc1cc2c(nc1N1CCC(Oc3cnc4c(c3)OCC4)CC1)CNC2=O", "note": "[Example 216A, 2-(4-((2,3-dihydrofuro[3,2-b]pyridin-6-yl)oxy)piperidin-1-yl)-3-methyl-6,7-dihydro-5H-pyrrolo[3,4-b]pyridin-5-one]", "EC50": 288}
{"smiles": "Cc1nc2ccc(OC3CCN(c4nc5c(cc4C)C(=O)NC5)CC3)cc2s1", "note": "[Example 122, 3-methyl-2-(4-((2-methylbenzo[d]thiazol-6-yl)oxy)piperidin-1-yl)-6,7-dihydro-5H-pyrrolo[3,4-b]pyridin-5-one]", "EC50": 2110}
{"smiles": "Cc1cc2c(nc1N1CCC(Oc3ccc4c(c3)OCCC4)CC1)CNC2=O", "note": "[Example 113, 2-(4-(chroman-7-yloxy)piperidin-1-yl)-3-methyl-6,7-dihydro-5H-pyrrolo[3,4-b]pyridin-5-one]", "EC50": 50}
{"smiles": "COCCOCc1cccc(OC2CCN(c3nc4c(cc3C)C(=O)NC4)CC2)c1", "note": "[Example 58, 2-(4-(3-((2-methoxyethoxy)meth-yl)phenoxy)piperi-din-1-yl)-3-methyl-6,7-dihydro-5H-pyrrolo[3,4-b]pyridin-5-one]", "EC50": 192}
{"smiles": "COc1ccc(OC2CCN(c3nc4c(cc3C)C(=O)N(C)[C@H]4CO)CC2)cn1", "note": "(single isomer, unassigned) [Example 273A]", "EC50": 4500}
{"smiles": "COc1ccc(OC2CCN(c3nc4c(cc3C)C(=O)N(C)[C@]4(C)CO)CC2)cn1", "note": "(single isomer, unassigned) [Example 287B]", "EC50": 214}
{"smiles": "Cc1cc2c(nc1N1CCC(OCc3cnn(C)c3)CC1)CNC2=O", "note": "[Example 190A, 3-methyl-2-(4-((1-methyl-1H-pyrazol-4-yl)methoxy)piperidin-1-yl)-6,7-dihydro-5H-pyrrolo[3,4-b]pyridin-5-one]", "EC50": 820}
{"smiles": "COc1ccc(OC2CCN(c3nc4c(c(C)c3C)C(=O)N(C)[C@@H]4CO)CC2)cn1", "note": "[Example 343A, (S)-7-(hydroxymethyl)-2-(4-((6-methoxypyridin-3-yl)oxy)piperidin-1-yl)-3,4,6-trimethyl-6,7-dihydro-5H-pyrrolo[3,4-b]pyridin-5-one]", "EC50": 27}
{"smiles": "CC(=O)N1Cc2ccc(OC3CCN(c4nc5c(cc4C)C(=O)NC5)CC3)cc2C1", "note": "[Example 294, 2-(4-((2-Acetylisoindolin-5-yl)oxy)piperidin-1-yl)-3-methyl-6,7-dihydro-5H-pyrrolo[3,4-b]pyridin-5-one]", "EC50": 202}
{"smiles": "CO[C@@H]1Cc2ccc(OC3CCN(c4nc5c(cc4C)C(=O)NC5)CC3)cc2C1", "note": "[Example 162A, (R)-2-(4-((2-methoxy-2,3-dihydro-1H-inden-5-yl)oxy)piperidin-1-yl)-3-methyl-6,7-dihydro-5H-pyrrolo[3,4-b]pyridin-5-one]", "EC50": 59}
{"smiles": "COc1ccc(OC2CCN(c3nc4c(cc3C)C(=O)N(CC(N)=O)C4)CC2)cn1", "note": "[Example 310, 2-(2-(4-((6-methoxypyridin-3-yl)oxy)piperidin-1-yl)-3-methyl-5-oxo-5,7-dihydro-6H-pyrrolo[3,4-b]pyridin-6-yl)acetamide]", "EC50": 101}
{"smiles": "Cc1cc2c(nc1N1CCC(Oc3cc(F)c4[nH]ncc4c3)CC1)CNC2=O", "note": "[Example 317, 2-(4-((7-Fluoro-1H-indazol-5-yl)ox)piperidin-1-yl)-3-methyl-6,7-dihydro-5H-pyrrolo[3,4-b]pyridin-5-one]", "EC50": 125}
{"smiles": "CO[C@H]1Cc2ccc(OC3CCN(c4nc5c(cc4C)C(=O)NC5)CC3)cc2C1", "note": "[Example 162B, (S)-2-(4-((2-methoxy-2,3-dihydro-1H-inden-5-yl)oxy)piperidin-1-yl)-3-methyl-6,7-dihydro-5H-pyrrolo[3,4-b]pyridin-5-one]", "EC50": 47}
{"smiles": "Cc1cc2c(nc1N1CCC(Oc3ccc(OCCO)nc3)CC1)CNC2=O", "note": "[Example 170, 2-(4-((6-(2-hydroxyethoxy)pyridin-3-yl)oxy)piperidin-1-yl)-3-methyl-6,7-dihydro-5H-pyrrolo[3,4-b]pyridin-5-one]", "EC50": 40}
{"smiles": "Cc1cc2c(nc1N1CCC(OCC3(C)CC3(F)F)CC1)CNC2=O", "note": "(centres unmarked) [Example 64, 2-(4-((2,2-difluoro-1-methylcyclopropyl)methoxy)piperidin-1-yl)-3-methyl-6,7-dihydro-5H-pyrrolo[3,4-b]pyridin-5-one]", "EC50": 206}
{"smiles": "Cc1cc2c(nc1N1CC[C@@H](OCC3(C)CC3)C(F)(F)C1)CNC2=O", "note": "[Example 171A, (R)-2-(3,3-difluoro-4-((1-methylcyclopropyl)meth-oxy)piperidin-1-yl)-3-methyl-6,7-dihydro-5H-pyrrolo[3,4-b]pyridin-5-one]", "EC50": 491}
